The experiment relates to Plasmodium berghei. The experiment in a line: Luciferase/luciferin-expressing antifolate-resistant parasites were used to infect a culture of HepG2 cells that were pre-incubated with compounds. Infected hepatocytes emit light due to the luciferase reaction. Assay results are presented as the percent inhibition of light emission compared to control. […]. The class given is functional. To be noted: sporozoite; for pIC50: read-out: LUCIFERASE INFECTION ASSAY - IC50; for IC90: read-out: LUCIFERASE INFECTION ASSAY - IC90.

pIC50: −log10 of the molar value. Some results are limits rather than exact numbers.

The pIC50 is the IC50 on a negative log10 scale, so that one unit is a factor of ten. In general, IC90 refers to the concentration needed for an effect of 90%. Take `CC(C)c1ccc(-c2ccc3nnc(-c4ccc5nccnc5c4)n3c2)cc1`: the pIC50 was below 5.00 and the concentration for an effect of 90% (IC90) was above 10 µM.

In the case of `CC(=O)c1ccc(NC(=O)Nc2ccc3nc(-c4cccc(F)c4)nn3c2)cc1`, the pIC50 is 5.26 and the IC90 was above 10 µM.

For the compound `CCCCc1[nH]nc2ccnc(-c3ccsc3)c12`, the pIC50 was below 5.00 and the IC90 is above 10 µM.

On to `Clc1cccc(-c2cc3[nH]c(NCc4ccccc4)nc3cn2)c1`, for which the pIC50 was below 5.00 and the IC90 is above 10 µM.

In the case of `COc1cc(NC(=O)Nc2ccc3nc(-c4ccoc4)nn3c2)cc(OC)c1OC`, the negative-log IC50 (pIC50) is below 5.00 and the IC90 was above 10 µM.

For the compound `COc1cc(-c2nccc3n[nH]c(-c4cccc(OC(F)(F)F)c4)c23)cc(OC)c1OC`, the pIC50 was below 5.00 and the 90% effect concentration (IC90) was above 10 µM.

For `Cn1c(Nc2cccc(C(F)(F)F)c2)nc2cnc(-c3ccoc3)cc21`, the pIC50 is below 5.00 and the concentration for an effect of 90% (IC90) is above 10 µM.

Consider `Cn1c(NCc2ccccc2)nc2cnc(-c3ccsc3)cc21`, for which the pIC50 is below 5.00 and the IC90 was above 10 µM.

With `c1cncc(Cn2cnc3cnc(Nc4cccnc4)cc32)c1`, the pIC50 is below 5.00 and the IC90 is above 10 µM.

As to `Cc1[nH]nc2ccnc(-c3cccc(OC(F)(F)F)c3)c12`, the negative-log IC50 (pIC50) was below 5.00 and the concentration for an effect of 90% (IC90) is above 10 µM.

On to `O=C(Nc1cccc(C(F)(F)F)c1)Nc1ccc2nc(-c3ccncc3)nn2c1`, for which the pIC50 is below 5.00 and the IC90 is above 10 µM.

With `CC(=O)c1ccc(NC(=O)Nc2ccc3nc(-c4cccc(C(F)(F)F)c4)nn3c2)cc1`, the pIC50 was 5.45 and the IC90 was 7.78 µM.

Turning to `COc1cc(-c2nc3ccc(NC(=O)c4c(C)noc4C)cn3n2)cc(OC)c1OC`, the negative logarithm of the IC50 (pIC50) is below 5.00 and the concentration for an effect of 90% (IC90) is above 10 µM.

For the compound `COc1cc(Nc2nc3cnc(-c4cccnc4)cc3n2C)cc(OC)c1OC`, the negative logarithm of the IC50 (pIC50) is 5.06 and the IC90 was above 10 µM.

As for `CCCCc1[nH]nc2ccnc(-c3ccc(OC)c(OC)c3)c12`, the pIC50 is 6.01 and the IC90 amounted to 1.3 µM.

As for `CC(C)c1ccc(NC(=O)Nc2ccc3nc(-c4ccco4)nn3c2)cc1`, the pIC50 is below 5.00 and the 90% effect concentration (IC90) was above 10 µM.

For the compound `Cn1nc(C(C)(C)C)cc1C(=O)Nc1ccc2nc(-c3cccs3)nn2c1`, the pIC50 is below 5.00 and the IC90 was above 10 µM.

On to `CN(C)C(=O)c1ccc(Nc2cc3c(cn2)nc(-c2ccco2)n3C)cc1`, for which the pIC50 is below 5.00 and the IC90 was above 10 µM.

`O=C(Nc1ccc(OC(F)(F)F)cc1)Nc1ccc2nc(-c3ccoc3)nn2c1`: the pIC50 is 5.00 and the IC90 was above 10 µM.

For `Cn1c(NCc2ccccc2F)nc2cnc(-c3ccc(Cl)cc3)cc21`, the pIC50 is below 5.00 and the concentration for an effect of 90% (IC90) was above 10 µM.

For the compound `Cc1ccc(NC(=O)Nc2ccc3nc(-c4ccccc4)nn3c2)cc1`, the pIC50 was below 5.00 and the concentration for an effect of 90% (IC90) is above 10 µM.

Take `O=C(Nc1cccc(F)c1)Nc1ccc2nc(-c3cccnc3)nn2c1`: the negative-log IC50 (pIC50) is below 5.00 and the IC90 is above 10 µM.

With `CNc1nc2cnc(-c3ccc(O)c(OC)c3)cc2n1Cc1ccccc1`, the pIC50 is 5.50 and the IC90 was 3.99 µM.

On to `COc1ccc(-c2nc3ccc(NC(=O)Nc4ccc(OC)c(OC)c4)cn3n2)cc1`, for which the negative-log IC50 (pIC50) is below 5.00 and the IC90 is above 10 µM.

Take `CN(C)c1ccc(-c2cc3c(cn2)nc(NCc2ccccc2)n3C)cc1`: the pIC50 was below 5.00 and the IC90 was above 10 µM.

With `FC(F)(F)Oc1cccc(-c2[nH]nc3ccnc(-c4ccsc4)c23)c1`, the pIC50 was below 5.00 and the IC90 was above 10 µM.

With `COc1ccccc1-c1nc2ccc(NC(=O)c3cc(C(C)(C)C)nn3C)cn2n1`, the pIC50 was below 5.00 and the IC90 was above 10 µM.

For the compound `COc1ccc(OC)c(CCNc2nc3cnc(-c4cccc(NS(C)(=O)=O)c4)cc3n2C)c1`, the pIC50 is below 5.00 and the IC90 is above 10 µM.

For `COc1ccc(NC(=O)Nc2ccc3nc(-c4ccccc4)nn3c2)cc1OC`, the pIC50 was below 5.00 and the IC90 is above 10 µM.

Turning to `Cn1c(Cc2ccccc2)nc2cnc(Nc3cccc(C(F)(F)F)c3)cc21`, the pIC50 is below 5.00 and the IC90 is above 10 µM.

As for `Cn1c(Nc2ccccc2)nc2cnc(-c3ccc(N4CCOCC4)cc3)cc21`, the pIC50 is 5.03 and the IC90 was above 10 µM.

Regarding `COc1ccc(OC)c(CCNc2nc3cnc(-c4cccc(Oc5ccccc5)c4)cc3n2C)c1`, the pIC50 is 6.28 and the IC90 came to 1.51 µM.

As for `COc1cc(-c2cc3c(cn2)nc(NCc2cccc(C)c2)n3C)ccc1O`, the pIC50 was below 5.00 and the 90% effect concentration (IC90) was above 10 µM.

For the compound `O=C(Nc1cccc(Cl)c1)Nc1ccc2nc(Cc3ccccc3)nn2c1`, the negative-log IC50 (pIC50) was 5.55 and the IC90 turned out to be 3.2 µM.

Regarding `Cn1c(Nc2ccccc2)nc2cnc(-c3ccc4c(c3)OCO4)cc21`, the pIC50 is below 5.00 and the IC90 was above 10 µM.

With `COc1ccc(C(=O)Nc2ccc3nc(-c4ccccc4)nn3c2)cc1OC`, the pIC50 is below 5.00 and the IC90 was above 10 µM.

In the case of `COc1cc(-c2cc3c(cn2)nc(NCc2cccc(C)c2)n3C)cc(OC)c1OC`, the pIC50 is 5.08 and the concentration for an effect of 90% (IC90) is above 10 µM.

As for `Cn1c(NCC2CCCO2)nc2cnc(-c3cccc(Oc4ccccc4)c3)cc21` (configuration not stated), the pIC50 is below 5.00 and the IC90 was above 10 µM.

Consider `c1ccc(Oc2cccc(-c3ccc4nnc(-c5ccccc5)n4c3)c2)cc1`, for which the pIC50 was below 5.00 and the IC90 was above 10 µM.

As for `COc1ccc(C(=O)Nc2ccc3nc(-c4ccccc4OC)nn3c2)cc1OC`, the pIC50 is below 5.00 and the concentration for an effect of 90% (IC90) was above 10 µM.

Turning to `Cn1c(NCC2CC2)nc2cnc(-c3cccc(Oc4ccccc4)c3)cc21`, the pIC50 is 5.25 and the IC90 was above 10 µM.

Take `CN(C)c1ccc(-c2nccc3n[nH]c(-c4cccc(OC(F)(F)F)c4)c23)cc1`: the pIC50 was below 5.00 and the IC90 is above 10 µM.

As to `CNc1nc2cnc(-c3ccccc3C)cc2n1-c1cccc(F)c1`, the pIC50 was below 5.00 and the IC90 is above 10 µM.

On to `COc1cc(-c2[nH]nc3ccnc(-c4cccc(OC(F)(F)F)c4)c23)cc(OC)c1OC`, for which the negative logarithm of the IC50 (pIC50) was below 5.00 and the IC90 was above 10 µM.

Take `CNc1nc2cnc(-c3cccc(Oc4ccccc4)c3)cc2n1Cc1cccnc1`: the pIC50 is below 5.00 and the concentration for an effect of 90% (IC90) is above 10 µM.

Turning to `COc1ccc(NC(=O)Nc2ccc3nc(-c4ccccc4OC)nn3c2)cc1OC`, the pIC50 was below 5.00 and the IC90 was above 10 µM.

For the compound `COc1cccc(-c2nc3ccc(NC(=O)Nc4cccc(C(C)=O)c4)cn3n2)c1`, the pIC50 is below 5.00 and the IC90 was above 10 µM.

Turning to `COc1ncccc1-c1cc2c(cn1)nc(NCc1cccc(C)c1)n2C`, the pIC50 was below 5.00 and the 90% effect concentration (IC90) is above 10 µM.

Regarding `Cc1cccc(CNc2nc3cnc(-c4ccccc4)cc3n2C)c1`, the pIC50 was below 5.00 and the IC90 is above 10 µM.

Regarding `COc1cc(-n2cnc3cnc(Nc4cccc(C(F)(F)F)c4)cc32)cc(OC)c1OC`, the negative-log IC50 (pIC50) is below 5.00 and the IC90 was above 10 µM.

Take `COc1cccc(-c2nccc3n[nH]c(-c4ccc(OC)cc4C)c23)c1`: the pIC50 was 5.35 and the IC90 is above 10 µM.

The record behind these values is ChEMBL document CHEMBL4483862, “Open-source discovery of chemical leads for next-generation chemoprotective antimalarials” (2018).
